Columns and labels:
Format in all cases: cell-based
PPARα = biological target: T1, PPARα (Homo sapiens, UniProt Q07869); test: Gal4 hybrid reporter gene assay PPARα (selectivity profiling)
T1 construct: expressed in transfected cells; host or cells: HEK293T
T1 sequence (Q07869 239-466 limits assumed): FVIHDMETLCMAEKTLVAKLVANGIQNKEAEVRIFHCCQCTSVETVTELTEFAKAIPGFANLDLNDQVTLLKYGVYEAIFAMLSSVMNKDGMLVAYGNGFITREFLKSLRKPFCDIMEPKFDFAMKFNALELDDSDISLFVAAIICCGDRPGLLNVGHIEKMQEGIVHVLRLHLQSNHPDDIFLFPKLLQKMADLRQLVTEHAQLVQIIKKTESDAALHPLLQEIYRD
Experimental: (§1) Moreover, 7 was characterized for its ability to modulate RXR target gene expression under more physiological conditions. Hepatoma cells (HepG2) were incubated with 7 (30 µM) or reference RXR agonist bexarotene (9, 1 µM) for eight hours and mRNA expression of RXR regulated genes ATP-binding cassette transporter A1 (ABCA1), angiopoietin like protein 4 (ANGPTL4) and apolipoprotein E (ApoE) was analysed by quantitative real-time PCR.
(§2) The Gal4 hybrid reporter gene assays were conducted as reported previously[39]–[41]. pFA-CMV-based constructs comprising the ligand binding domain of the human nuclear receptor in question were used as expression plasmids for the chimera receptors. pFR-Luc (Stratagene) served as reporter plasmid and pRL-SV40 (Promega) for normalization of transfection efficiency and cell growth. The assays were conducted in 96-well format in HEK293T cells that were cultured as described previously[39]–[41]. Transient transfection was carried out using Lipofectamine LTX reagent (Invitrogen) according to the manufacturer’s protocol. After transfection and incubation with test compounds (12–14 h), cells were assayed for luciferase activity using Dual-Glo™ Luciferase Assay System (Promega) according to the manufacturer’s protocol. Luminescence was measured with an Infinite M200 luminometer (Tecan Deutschland GmbH). […]

PPARγ = biological target: T2, PPARγ (Homo sapiens, UniProt P37231); test: Gal4 hybrid reporter gene assay PPARγ (selectivity profiling)
T2 construct: expressed in transfected cells; host or cells: HEK293T
T2 sequence (P37231 238-503 limits assumed): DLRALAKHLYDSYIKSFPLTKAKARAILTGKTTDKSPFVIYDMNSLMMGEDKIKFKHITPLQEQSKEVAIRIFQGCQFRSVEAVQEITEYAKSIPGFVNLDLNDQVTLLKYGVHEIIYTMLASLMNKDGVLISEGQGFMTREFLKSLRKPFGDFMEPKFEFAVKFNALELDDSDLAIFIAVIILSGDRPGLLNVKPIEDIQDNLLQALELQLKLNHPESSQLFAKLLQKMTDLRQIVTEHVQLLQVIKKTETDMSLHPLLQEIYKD
Experimental: as §1, §2

PPARδ = biological target: T3, PPARδ (Homo sapiens, UniProt Q03181); test: Gal4 hybrid reporter gene assay PPARδ (selectivity profiling)
T3 construct: expressed in transfected cells; host or cells: HEK293T
T3 sequence (Q03181 211-439 limits assumed): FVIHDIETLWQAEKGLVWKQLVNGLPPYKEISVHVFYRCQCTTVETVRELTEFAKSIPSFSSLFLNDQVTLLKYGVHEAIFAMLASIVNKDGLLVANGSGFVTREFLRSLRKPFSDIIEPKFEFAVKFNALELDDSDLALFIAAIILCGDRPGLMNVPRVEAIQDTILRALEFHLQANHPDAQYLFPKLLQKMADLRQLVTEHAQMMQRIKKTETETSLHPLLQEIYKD
Experimental: as §1, §2

LXRα = biological target: T4, LXRα (Homo sapiens, UniProt Q13133); test: Gal4 hybrid reporter gene assay LXRα (selectivity profiling)
T4 construct: expressed in transfected cells; host or cells: HEK293T
T4 sequence (Q13133 209-447 limits assumed): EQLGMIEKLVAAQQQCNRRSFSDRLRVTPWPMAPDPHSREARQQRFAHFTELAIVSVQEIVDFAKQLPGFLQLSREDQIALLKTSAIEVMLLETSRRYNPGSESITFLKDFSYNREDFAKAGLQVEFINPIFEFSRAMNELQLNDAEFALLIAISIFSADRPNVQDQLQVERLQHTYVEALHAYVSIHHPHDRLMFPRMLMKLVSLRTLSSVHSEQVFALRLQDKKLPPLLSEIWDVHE
Experimental: as §1, §2

RARα = biological target: T5, RARα (Homo sapiens, UniProt P10276); test: Gal4 hybrid reporter gene assay RARα (selectivity profiling)
T5 construct: expressed in transfected cells; host or cells: HEK293T
T5 sequence (P10276 183-417 limits assumed): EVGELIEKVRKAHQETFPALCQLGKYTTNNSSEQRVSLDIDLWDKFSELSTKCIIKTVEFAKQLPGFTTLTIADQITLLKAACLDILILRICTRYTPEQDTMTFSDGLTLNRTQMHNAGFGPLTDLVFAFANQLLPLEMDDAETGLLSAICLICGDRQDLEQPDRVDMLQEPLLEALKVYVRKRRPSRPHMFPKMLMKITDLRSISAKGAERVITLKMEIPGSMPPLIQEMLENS
Experimental: as §1, §2

[1] = biological target: T6, pregnane X receptor [PXR] (Homo sapiens, UniProt O75469); test: Gal4 hybrid reporter gene assay PXR (selectivity profiling)
T6 construct: expressed in transfected cells; host or cells: HEK293T
T6 sequence (O75469 146-433 limits assumed): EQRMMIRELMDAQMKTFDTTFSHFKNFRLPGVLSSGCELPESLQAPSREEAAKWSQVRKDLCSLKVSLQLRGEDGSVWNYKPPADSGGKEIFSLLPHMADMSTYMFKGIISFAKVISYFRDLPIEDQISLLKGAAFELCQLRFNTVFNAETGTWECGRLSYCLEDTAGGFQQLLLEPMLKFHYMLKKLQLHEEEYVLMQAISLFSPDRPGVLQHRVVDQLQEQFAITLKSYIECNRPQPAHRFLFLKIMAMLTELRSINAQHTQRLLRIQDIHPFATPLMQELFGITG
Experimental: as §1, §2

HepG2 cells = test: Toxicity assay (WST-1, water-soluble tetrazolium assay); settings: WST-1, HepG2 cells, 48 h
Experimental: WST-1 assay (Roche Diagnostics International AG, Rotkreuz, Schweiz) was performed according to manufacturer’s protocol in HepG2 cells. Cells were incubated with the test compounds (final concentrations: 1 µM, 10 µM, 30 µM, 50 µM and 100 µM) in DMEM/1% DMSO, and DMEM/1% DMSO as negative control. After 48 h, WST reagent (Roche Diagnostics International AG) was added to each well according to manufacturer’s instructions. After 45 min incubation, absorption (450 nm/reference: 620 nm) was determined with a Tecan Infinite M200 (Tecan Deutschland GmbH). Each experiment was set up in duplicates and repeated in four independent experiments. Results are expressed as mean ± SEM% of DMSO (0.1%) control.

CC(C)(C)c1cc(/C=N/NC(=O)c2ccc(N)cc2)cc(C(C)(C)C)c1 [Compound 7]
activity on PPARα (PPARα): no activity | activity on PPARγ (PPARγ): no activity | activity on PPARδ (PPARδ): no activity | activity on LXRα (LXRα): no activity | activity on RARα (RARα): no activity | activity on PXR [1]: no activity | concentration up to which no cytotoxic effect was seen (HepG2 cells): > 100 µM

Reference: publication PMC6220272, “Scaffold-Hopping from Synthetic Drugs by Holistic Molecular Representation” (Scientific Reports, 2018)
